The NIST ThermoML archive (doi:10.1021/je200369m)
Where “and” joins values, the source holds several entries; their conditions need not be identical. Identical values can stand only once.

Conditions: for mass density: Fluid (supercritical or subcritical phases), Buoyancy - hydrostatic balance with magnetic suspension - two sinkers; for vapor or sublimation pressure: Liquid, Closed cell

C=C(F)C(F)(F)F [2,3,3,3-tetrafluoro-1-propene]
Conditions	mass density [kg/m3]
232.01 K, 1003.6 kPa	1297.66
235.01 K, 1354.4 kPa	1290.57
240.01 K, 1309.7 kPa	1276.93
240.01 K, 5597.9 kPa	1288.72
245 K, 5368.7 kPa	1275.09
250 K, 2009.3 kPa	1251.5
250 K, 9475.2 kPa	1273.53
255 K, 5782.7 kPa	1249.79
260 K, 1001.4 kPa	1219.36
260 K, 9586.2 kPa	1248.32
265 K, 3824.7 kPa	1215.48
270 K, 1753.3 kPa	1192.46
270 K, 7264.8 kPa	1214.11
275 K, 4931.1 kPa	1190.99
280 K, 1780.9 kPa	1161.43
280 K, 8123.4 kPa	1189.71
285 K, 4675.9 kPa	1160.07
290 K, 1604.8 kPa	1127.36
290 K, 7579.1 kPa	1158.85
295 K, 4198.6 kPa	1126
300 K, 1079.2 kPa	1087.77
300 K, 6812.1 kPa	1124.85
305 K, 3364.3 kPa	1086.43
309.99 K, 5673.9 kPa	1085.35
310 K, 1004 kPa	1047.05
314.99 K, 2511.7 kPa	1041.01
319.99 K, 553.9 kPa	26.402
320 K, 973.2 kPa	51.726
320 K, 4518 kPa	1040.05
325 K, 1456.3 kPa	982.689
329.99 K, 574 kPa	26.306
330 K, 979.2 kPa	49.047
330 K, 985.9 kPa	49.464
330 K, 3108.2 kPa	981.791
335 K, 1592.5 kPa	92.726
335 K, 1798 kPa	932.524
335 K, 4770.8 kPa	980.976
340 K, 593.8 kPa	26.211
340 K, 980.9 kPa	46.55
340 K, 993.5 kPa	47.298
340 K, 1640.5 kPa	92.612
340 K, 1827.8 kPa	110.941
340 K, 3191.5 kPa	931.599
345 K, 4594.1 kPa	930.707
350 K, 613.2 kPa	26.12
350 K, 985.9 kPa	44.652
350 K, 1003 kPa	45.555
350 K, 1736.8 kPa	92.623
350 K, 2261.9 kPa	146.58
350 K, 2461 kPa	839.342
350 K, 6005.4 kPa	929.873
355 K, 2740.3 kPa	801.182
360 K, 632.4 kPa	26.029
360 K, 987.2 kPa	42.763
360 K, 1005.2 kPa	43.637
360 K, 1830.5 kPa	92.622
360 K, 2067 kPa	110.845
360 K, 2433.6 kPa	146.594
360 K, 2545.4 kPa	160.529
360 K, 2767.9 kPa	197.534
360 K, 3210.5 kPa	772.483
360 K, 3638.8 kPa	800.559
362 K, 2963.7 kPa	235.115
365 K, 991.9 kPa	42.073
365 K, 1876.6 kPa	92.619
365 K, 2516.7 kPa	146.549
365 K, 2892.6 kPa	197.483
365 K, 3086.7 kPa	243.237
365 K, 4553.7 kPa	799.933
368 K, 3184.3 kPa	243.231
370 K, 651.2 kPa	25.938
370 K, 993.7 kPa	41.326
370 K, 996.3 kPa	41.436
370 K, 2181.6 kPa	110.789
370 K, 2598.5 kPa	146.499
370 K, 2866.8 kPa	176.561
370 K, 3014.9 kPa	197.482
370 K, 3248.6 kPa	243.253
370 K, 3252.2 kPa	244.129
370 K, 5480.7 kPa	799.34
370.01 K, 1920.5 kPa	92.497
380 K, 667.9 kPa	25.765
380 K, 994.8 kPa	39.809
380 K, 2293.9 kPa	110.737
380 K, 3047.3 kPa	173.864
380 K, 3496.1 kPa	231.99
380 K, 6583.2 kPa	770.356
390 K, 670.7 kPa	25.062
390 K, 987.8 kPa	38.088
390 K, 2404.1 kPa	110.68
400 K, 683.2 kPa	24.785
400 K, 991.4 kPa	36.952
400 K, 2512.9 kPa	110.64

Conditions	vapor or sublimation pressure
250 K	133.03 kPa and 133.37 kPa
260 K	197.44 kPa
270 K	283.41 kPa and 283.03 kPa and 283.48 kPa
280 K	395.91 kPa
290 K	538.95 kPa and 539.38 kPa and 539.42 kPa
300 K	718.68 kPa
309.99 K	938.57 kPa
310 K	939.28 kPa and 939.3 kPa
312 K	989.09 kPa
314 K	1040.9 kPa
316 K	1094.4 kPa
319.99 K	1206.8 kPa and 1207 kPa and 1206.4 kPa
320 K	1207.6 kPa and 1207.7 kPa
330 K	1529 kPa
340 K	1910.2 kPa
350 K	2361.4 kPa
355 K	2616.5 kPa
360 K	2893.8 kPa
362 K	3011.5 kPa
364 K	3133.6 kPa
366 K	3260.2 kPa
